From patent US20210169892A1, “MODULATORS OF THE INTEGRATED STRESS PATHWAY” (Calico Life Sciences LLC, priority 2017, published 2021) come the findings set out here.

The test concerns HEK293T cells carrying the ATF4 luciferase reporter. Briefly: ATF4-Luc assay (in vitro model of vanishing white matter disease). The class given is cell-based. To be noted: Homo sapiens, HEK-293T; HEK293T cells with ATF4 luciferase reporter, 1 μg/mL tunicamycin, 7 hours, One Glo luminescence. The method, then:
In order to test exemplary compounds of the invention in a cellular context, a stable VWMD cell line was first constructed. The ATF4 reporter was prepared by fusing the human full-length ATF4 5′-UTR (NCBI Accession No. BC022088.2) in front of the firefly luciferase (FLuc) coding sequence lacking the initiator methionine as described in Sidrauski et al (eLife 2013). The construct was used to produce recombinant retroviruses using standard methods and the resulting viral supernatant was used to transduce HEK293T cells, which were then subsequently selected with puromycin to generate a stable cell line.
HEK293T cells carrying the ATF4 luciferase reporter were plated on polylysine coated 384-well plates (Greiner Bio-one) at 30,000 cells per well. Cells were treated the next day with 1 μg/mL tunicamycin and 200 nM of a compound of Formula (I) for 7 hours. Luminescence was measured using One Glo (Promega) as specified by the manufacturer. Cells were maintained in DMEM with L-glutamine supplemented with 10% heat-inactivated FBS (Gibco) and Antibiotic-Antimycotic solution (Gibco).
Table 2 below summarizes the EC50 data obtained using the ATF4-Luc assay for exemplary compounds of the invention.
On the technique in general: A reporter such as luciferase makes a cellular process visible.

`O=C(COc1ccc(Cl)c(F)c1)NC12CC(NC(=O)[C@H]3COc4ccccc4O3)(C1)C2` [Compound 124, (2R)—N-{3-[2-(4-chloro-3-fluorophenoxy)acetamido]bicyclo[1.1.1]pentan-1-yl}-2,3-dihydro-1,4-benzodioxine-2-carboxamide]: the EC50 (commonly the midpoint of the concentration-response curve) fell in the range of 10 to 50 nM.

`O=C(COc1ccc(Cl)c(F)c1)NC12CC(NC(=O)[C@@H]3COc4ccccc4O3)(C1)C2` [Compound 125, (2S)—N-{3-[2-(4-chloro-3-fluorophenoxy)acetamido]bicyclo[1.1.1]pentan-1-yl}-2,3-dihydro-1,4-benzodioxine-2-carboxamide]: the EC50 lay in the range of 50 to 250 nM.

Take `O=C(COc1ccc(Cl)c(F)c1)NC12CCC(NC(=O)[C@H]3COc4ccccc4O3)(CC1)[C@@H](O)C2` [Compound 126, (2R)—N-{(2S)-4-[2-(4-chloro-3-fluorophenoxy)acetamido]-2-hydroxybicyclo[2.2.2]octan-1-yl}-2,3-dihydro-1,4-benzodioxine-2-carboxamide]: the EC50 is less than 10 nM.

With `O=C(COc1ccc(Cl)c(F)c1)NC12CCC(NC(=O)[C@@H]3COc4ccccc4O3)(CC1)[C@@H](O)C2` [Compound 127, (2S)—N-{(2S)-4-[2-(4-chloro-3-fluorophenoxy)acetamido]-2-hydroxybicyclo[2.2.2]octan-1-yl}-2,3-dihydro-1,4-benzodioxine-2-carboxamide], the concentration for a half-maximal effect (EC50) is 10 to 50 nM.

With `O=C(COc1ccc(Cl)c(F)c1)NC12CC(NC(=O)[C@H]3Cc4ccccc4N3)(C1)C2` [Compound 128, (2R)—N-{3-[2-(4-chloro-3-fluorophenoxy)acetamido]bicyclo[1.1.1]pentan-1-yl}-2,3-dihydro-1H-indole-2-carboxamide], the EC50 was in the range of 50 to 250 nM.

Turning to `O=C(COc1ccc(Cl)c(F)c1)NC12CCC(NC(=O)C3Cc4ccccc4O3)(CC1)C(O)C2` (centres unmarked) [Compound 129, N-{4-[2-(4-chloro-3-fluorophenoxy)acetamido]-2-hydroxybicyclo[2.2.2]octan-1-yl}-2,3-dihydro-1-benzofuran-2-carboxamide], the concentration for a half-maximal effect (EC50) was in the range of 250 to 500 nM.

As to `C[C@@]1(C(=O)NC23CC(NC(=O)COc4ccc(Cl)c(F)c4)(C2)C3)COc2cc3c(cc21)OC(F)(F)O3` [Compound 130, (7S)—N-{3-[2-(4-chloro-3-fluorophenoxy)acetamido]bicyclo[1.1.1]pentan-1-yl}-2,2-difluoro-7-methyl-6,7-dihydro-2H-furo[2,3-f][1,3]benzodioxole-7-carboxamide], the half-maximal effective concentration (EC50) is greater than 2000 nM.

In the case of `C[C@]1(C(=O)NC23CC(NC(=O)COc4ccc(Cl)c(F)c4)(C2)C3)COc2cc3c(cc21)OC(F)(F)O3` [Compound 131, (7R)—N-{3-[2-(4-chloro-3-fluorophenoxy)acetamido]bicyclo[1.1.1]pentan-1-yl}-2,2-difluoro-7-methyl-6,7-dihydro-2H-furo[2,3-f][1,3]benzodioxole-7-carboxamide], the concentration giving a half-maximal response (EC50) is 500 to 2000 nM.

For the compound `O=C(NC12CC(NC(=O)C3COc4cc(Cl)c(Cl)cc4O3)(C1)C2)c1ccc(OC(F)(F)F)cn1` (centres unmarked) [Compound 132, N-{3-[(6,7-dichloro-2,3-dihydro-1,4-benzodioxine-2-carbonyl)amino]bicyclo[1.1.1]pentan-1-yl}-5-(trifluoromethoxy)pyridine-2-carboxamide], the concentration giving a half-maximal response (EC50) lay within 50 to 250 nM.

As to `O=C(NC12CC(NC(=O)C3COc4cc(Cl)c(Cl)cc4O3)(C1)C2)c1cnc(C(F)F)cn1` (centres unmarked) [Compound 133, N-{3-[(6,7-dichloro-2,3-dihydro-1,4-benzodioxine-2-carbonyl)amino]bicyclo[1.1.1]pentan-1-yl}-5-(difluoromethyl)pyrazine-2-carboxamide], the EC50 was in the range of 10 to 50 nM.

`O=C(COc1ccc(Cl)c(F)c1)NC12CC(NC(=O)C3CN(CCO)c4cc(Cl)ccc4O3)(C1)C2` (centres unmarked) [Compound 135, 6-chloro-N-{3-[2-(4-chloro-3-fluorophenoxy)acetamido]bicyclo[1.1.1]pentan-1-yl}-4-(2-hydroxyethyl)-3,4-dihydro-2H-1,4-benzoxazine-2-carboxamide]: the EC50 was less than 10 nM.
